The record followed here is patent US20180125032A1, “Automated method and system for introducing Liquid iodine into drinking water” (priority 2010, published 2018).

The nature of data set [1]: Loss of I2 from water at room temperature (hydrolysis / out gassing). The class given is physicochemical. How it is done: The only significant anti-infective iodine species in water is molecular iodine (I2). In the pH range of 6.0<->7.0, I2 is favored when I2 is added directly into water. […] If the pH of the water is kept at about pH 6.0, I2 is favored, but if the pH is above 7.0, I2 will hydrolyze (3) to I^− and HOI and I3^− (7) can form and accumulate in the water. I have determined experimentally that I2 is lost from the water at room temperature at a linear rate of about 0.3 mcg/mL/hour when the pH of the water was adjusted to ˜pH5-5.5 with acetic acid to prolong survival of I2 in water. Thus after 24 hours >90% of the I2 is lost either to hydrolysis
or volatile I2 via out gassing. At higher pH, the iodine will dissipate faster or be converted to HOI. At neutral pH=7 the I2 loss is ˜0.5 mcg/mL/hr so that >90% is gone within 4 hours.

Data set [2] can be described thus: Pets drinking iodinated water, observation for ill effects. Type of data set: in vivo, dogs and cats.

On to `II` [I2, molecular iodine], for which, in data set [1] (after 24 hours, ~pH5-5.5, room temperature), the “I2 lost (hydrolysis or out gassing)” value is given as above 90%. Also, the I2 loss rate in data set [1] (neutral pH=7) was around 0.5 µg/mL/h. The “rate of I2 loss from the water (linear)” value in data set [1] (room temperature, water adjusted to ~pH5-5.5 with acetic acid) was “about 0.3 mcg/mL/hour”. Moreover, the I2 gone in data set [1] (within 4 hours, neutral pH=7) is on record as above 90%. Also, in data set [2] (dogs and cats followed for 3 weeks, 1-5 mcg/mL in drinking water), the ill effects entry was “no ill effects were noted”. Also, the “changes in pet behavior, food consumption or excretion” value in data set [2] (two 35 kg dogs and two 4 kg cats, drinking water with average about 5 mcg/mL I2, followed for 4 days) was “no obvious changes in pet behavior, food consumption or excretion”.
